From US20080019913A1 (UNIVERSITY OF ARIZONA OFFICE OF TECHNOLOGY TRANSFER, published 2008)
Non-standard residues stand in square brackets, D forms with d. Residues, ends and D or L forms follow the SMILES beside them. No end group written: not given here. *: point of attachment. β‑lactoside = OC[C@H]1O[C@@H](O[C@H]2[C@H](O)[C@@H](O)[C@H](*)O[C@@H]2CO)[C@H](O)[C@@H](O)[C@H]1O; X2 = OC[C@H]1O[C@@H](O[C@H]2[C@H](O)[C@@H](O)[C@H](*)O[C@@H]2CO)[C@H](O)[C@@H](O)[C@H]1O; βGlc = OC[C@H]1O[C@@H](*)[C@H](O)[C@@H](O)[C@@H]1O; β‑D‑xyloside = O[C@@H]1[C@@H](O)[C@H](*)OC[C@H]1O; X1 = O[C@@H]1[C@@H](O)[C@H](*)OC[C@H]1O; NMeF = CN[C@@H](Cc1ccccc1)C(=O)O

Columns and labels:
adult male ICR mice = assay: 55° C. warm water tail-flick test (antinociception); format: in vivo, mouse; details: for A50 i.c.v. / A50 i.v.: mouse 55° C. tail-flick, time of peak effect; for A50 i.c.v.: i.c.v. administration; for A50 i.v.: i.v. administration
Experimental: All in vivo studies used adult male ICR mice (25-30 g; Harlan Industries, Cleveland, Ohio, USA) that were maintained on a 12 h light/dark cycle (lights on at 07:00 hours) in a temperature and humidity-controlled animal colony. All testing was carried out between 10:00 and 15:00 hours. Studies were carried out in accordance with the Guide for the Care and Use of Laboratory Animals as adopted and promulgated by the National Institutes of Health.
For intracerebroventricular (i.c.v.) injections, mice were lightly anesthetized with ether and an incision was made in the scalp. Injections were performed using a 10 μL Hamilton microsyringe (Hamilton Company, Reno, Nev., USA) at a point 2 mm caudal and 2 mm lateral from bregma. Compounds were injected at a depth of 3 mm in a volume of 5 μL. Intravenous (i.v.) injections were performed by restraining the mouse in a Plexiglas holder, dipping the tail for 10 seconds in 40° C. warm water to dilate the tail vein, and subsequent injection into the vein with a 30-gauge needle. All compounds were dissolved in distilled water (i.c.v. injections) or physiologic saline (i.v. injections).
Antinociception was assessed using the 55° C. warm water tail-flick test. The latency to the first sign of a rapid tail-flick was taken as the behavioral end-point. Each mouse was first tested for baseline latency by immersing its tail in the water and recording the time to response. Mice not responding within 5 seconds were excluded from further testing (average latency=2.1 seconds). Mice were then administered the test compound and tested for antinociception at 10, 20, 30, 45, 60, 90, 120 and 180 min postinjection. A maximum score was assigned (100%) to animals not responding within 10 seconds. Antinociception was calculated by the following formula: % antinociception=100·(test latency ) control latency)/(10 ) control latency). Dose-response lines were constructed at times of peak agonist effect, and analyzed by linear regression using […] software (17). All A50 values (95% confidence limits) shown were calculated from the linear portion of the dose-response curve. A minimum of three doses/curve and 8-10 mice were used at each dose level.

[1] = biological target: T1, human Δ-opioid receptor (DOR) (Homo sapiens, UniProt P41143); assay: biochemical; format: binding
T1 construct: expressed in transfected cells; host or cells: Chinese hamster ovary (CHO) cells

[2] = biological target: T2, human μ-opioid receptor (MOR) (Homo sapiens, UniProt P35372); assay: biochemical; format: binding
T2 construct: expressed in transfected cells; host or cells: Chinese hamster ovary (CHO) cells

[3] = biological target: human δ-opioid receptor (human) (UniProt P41143); assay: ratio of Ki values from radioligand competition, reference MOR
[4] = biological target: human δ-opioid receptor (human) (UniProt P41143); assay: radioligand competition against [3H]naltrindole, CHO cell membranes expressing human DOR
human κ-opioid receptor [5] = biological target: T3, human κ-opioid receptor (human, UniProt P41145 1-380); assay: radioligand competition against [3H]U69,593, CHO cell membranes expressing human KOR
T3 construct: whole, on cells; Assayed as membranes of CHO cells expressing the receptor; also called KOR
Experimental: (§1) Binding was determined in Chinese hamster ovary (CHO) cell membranes expressing either the human μ-, Δ-, or κ-opioid receptors (MOR, DOR, and KOR). Cells were incubated with 12 concentrations of glycopeptide and the indicated radiolabeled ligand (Table 1, below). Non-specific binding was measured by inclusion of 10 μM naloxone. Data are the mean Kᵢ values±SEM from three experiments performed in triplicate.

human κ-opioid receptor [6] = biological target: T3, human κ-opioid receptor; assay: ratio of Ki values from radioligand competition, reference MOR
Experimental: as §1

human µ-opioid receptor = biological target: T4, human µ-opioid receptor (human, UniProt P35372 1-400); assay: radioligand competition against [3H]DAMGO, CHO cell membranes expressing human MOR
T4 construct: whole, on cells; Assayed as membranes of CHO cells expressing the receptor; also called MOR; mu opioid receptor
Experimental: as §1

Molecule | A50 i.c.v. (adult male ICR mice) [pmol per mouse] | A50 i.v. (adult male ICR mice) [µmol/kg] | Ki [1] [nM] | Ratio µ:δ:κ (Ki at δ relative to µ) [3] | Ki (human κ-opioid receptor [5]) [nM] | Ratio µ:δ:κ (Ki at κ relative to µ) (human κ-opioid receptor [6]) | also measured
C[C@@H](NC(=O)[C@@H](N)Cc1ccc(O)cc1)C(=O)NCC(=O)N(C)[C@@H](Cc1ccccc1)C(=O)NCCO [DAMGO 1, [D-Ala^2,Me-Phe^4Gly^5(ol)]enkephalin, reference compound] | 30 | 1.88 |  |  |  |  | 
C[C@@H](NC(=O)[C@@H](N)Cc1ccc(O)cc1)C(=O)NCC(=O)N(C)[C@@H](Cc1ccccc1)C(=O)N[C@@H](CO[C@@H]1O[C@H](CO)[C@@H](O[C@@H]2O[C@H](CO)[C@H](O)[C@H](O)[C@H]2O)[C@H](O)[C@H]1O)C(N)=O [Compound 5] (H-Y[dA]G[NMeF]S(X2)-NH2; N-terminus assumed) | 2.0 | 1.15 | 1600 ± 129 |  |  |  | 
C[C@@H](NC(=O)[C@@H](N)Cc1ccc(O)cc1)C(=O)NCC(=O)N(C)[C@@H](Cc1ccccc1)C(=O)N[C@@H](CO[C@@H]1O[C@H](CO)[C@@H](O)[C@H](O)[C@H]1O)C(N)=O [Compound 4] (H-Y[dA]G[NMeF]S(βGlc)-NH2; N-terminus assumed) | 19 | 0.72 | > 5000 |  |  |  | Ki [2]: 1.3 ± 0.09 nM; duration of action (adult male ICR mice; after i.c.v. administration, tail-flick): > 180 min
C[C@@H](NC(=O)[C@@H](N)Cc1ccc(O)cc1)C(=O)NCC(=O)N(C)[C@@H](Cc1ccccc1)C(=O)N[C@@H](CO)C(N)=O [Compound 2] (HELM PEPTIDE1{Y.[dA].G.[meF].S.[am]}$$$$V2.0; N-terminus assumed) | 2.0 | 0.20 | 600 ± 44 |  |  |  | 
C[C@@H](NC(=O)[C@@H](N)Cc1ccc(O)cc1)C(=O)NCC(=O)N(C)[C@@H](Cc1ccccc1)C(=O)N[C@@H](CO[C@@H]1OC[C@@H](O)[C@H](O)[C@H]1O)C(N)=O [Compound 3] (H-Y[dA]G[NMeF]S(X1)-NH2; N-terminus assumed) | 2.0 | 0.27 | 730 ± 66 |  |  |  | Ki [2]: 1.3 ± 0.16 nM
DAMGO [D-Ala^2,Me-Phe^4Gly^5(ol)]enkephalin (peptide) |  |  |  | 1900 |  |  | Ki [4]: 990 nM
CN1CC[C@]23c4c5ccc(O)c4O[C@H]2[C@@H](O)C=C[C@H]3[C@H]1C5 [Morphine, reference compound] |  | 7.84 |  |  |  |  | 
YAGFS (HELM PEPTIDE1{Y.[dA].G.[meF].S.[am]}$$$$V2.0; N-terminus assumed; SMILES C[C@@H](NC(=O)[C@@H](N)Cc1ccc(O)cc1)C(=O)NCC(=O)N(C)[C@@H](Cc1ccccc1)C(=O)N[C@@H](CO)C(N)=O, Made by Fmoc synthesis on Rink amide resin; also called peptide 2) [DAMGO analog compound (2), C-terminal L-serine amide] |  |  |  | 880 | 190 | 280 | Ki (human µ-opioid receptor): 0.68 nM
Y[dA]G[NMeF]S(β‑D‑xyloside)-NH2 (N-terminus assumed; SMILES C[C@@H](NC(=O)[C@@H](N)Cc1ccc(O)cc1)C(=O)NCC(=O)N(C)[C@@H](Cc1ccccc1)C(=O)N[C@@H](CO[C@@H]1OC[C@@H](O)[C@H](O)[C@H]1O)C(N)=O, Glycopeptide; also called glycopeptide 3) [DAMGO analog compound (3), C-terminal L-serine amide beta-D-xyloside] |  |  |  | 560 | 160 | 120 | 
Y[dA]G[NMeF]S(βGlc)-NH2 (N-terminus assumed; SMILES C[C@@H](NC(=O)[C@@H](N)Cc1ccc(O)cc1)C(=O)NCC(=O)N(C)[C@@H](Cc1ccccc1)C(=O)N[C@@H](CO[C@@H]1O[C@H](CO)[C@@H](O)[C@H](O)[C@H]1O)C(N)=O, Glycopeptide; also called glycopeptide 4) [DAMGO analog compound (4), C-terminal L-serine amide beta-D-glucoside] |  |  |  | 3800 | 170 | 130 | 
Y[dA]G[NMeF]S(β‑lactoside)-NH2 (N-terminus assumed; SMILES C[C@@H](NC(=O)[C@@H](N)Cc1ccc(O)cc1)C(=O)NCC(=O)N(C)[C@@H](Cc1ccccc1)C(=O)N[C@@H](CO[C@@H]1O[C@H](CO)[C@@H](O[C@@H]2O[C@H](CO)[C@H](O)[C@H](O)[C@H]2O)[C@H](O)[C@H]1O)C(N)=O, Glycopeptide; also called glycopeptide 5) [DAMGO analog compound (5), C-terminal L-serine amide beta-lactoside] |  |  |  | 2400 | 350 | 530 | Ki (human µ-opioid receptor): 0.66 nM
